Measured values from paper PMC10763615, “Identification and engineering of potent cyclic peptides with selective or promiscuous binding through biochemical profiling and bioinformatic data analysis” (RSC Chemical Biology, 2023).
Like-named read-outs stand apart in the source and are kept apart here. Positions of bridges follow the written chain, without caps; N, C: chain ends. Residues, ends and D or L forms follow the SMILES beside them. No end group written: not given here.

Assays:
Type in all cases: binding
FGF-R4 ECD = biological target: T1, FGF-R4 ECD (Homo sapiens, UniProt P22455); experiment: single concentration BLI of crude peptides
T1 construct: DNA constructs for the extracellular domain (ECD) of human FGF-; HPC4 (C); made in house; host or cells: HEK 293-6E
T1 sequence (P22455 22-369 limits assumed): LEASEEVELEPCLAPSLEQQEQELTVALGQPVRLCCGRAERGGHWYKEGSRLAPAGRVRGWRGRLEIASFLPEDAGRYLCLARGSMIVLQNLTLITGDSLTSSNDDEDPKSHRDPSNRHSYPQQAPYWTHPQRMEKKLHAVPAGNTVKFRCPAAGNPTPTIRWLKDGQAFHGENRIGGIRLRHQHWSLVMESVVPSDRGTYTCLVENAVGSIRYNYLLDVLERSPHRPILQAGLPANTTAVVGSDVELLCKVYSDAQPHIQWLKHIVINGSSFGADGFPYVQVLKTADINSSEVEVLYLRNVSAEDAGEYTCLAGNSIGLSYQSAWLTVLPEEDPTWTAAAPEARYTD
In short: (§1)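 Streptavidin biosensors carrying biotinylated FGF receptor ECD were immersed in peptide (~1 μM for crude single-point runs, a concentration series for purified peptides) and then in peptide-free buffer. KD was obtained by fitting the BLI association and dissociation curves.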

FGF-R3C ECD = biological target: T2, FGF-R3C ECD (Homo sapiens, UniProt P22607); experiment: biochemical; design: DNA constructs for the extracellular domain (ECD) of human FGF-; HPC4 (C); made in house; host or cells: HEK 293-6E
T2 sequence (P22607 23-375 limits assumed): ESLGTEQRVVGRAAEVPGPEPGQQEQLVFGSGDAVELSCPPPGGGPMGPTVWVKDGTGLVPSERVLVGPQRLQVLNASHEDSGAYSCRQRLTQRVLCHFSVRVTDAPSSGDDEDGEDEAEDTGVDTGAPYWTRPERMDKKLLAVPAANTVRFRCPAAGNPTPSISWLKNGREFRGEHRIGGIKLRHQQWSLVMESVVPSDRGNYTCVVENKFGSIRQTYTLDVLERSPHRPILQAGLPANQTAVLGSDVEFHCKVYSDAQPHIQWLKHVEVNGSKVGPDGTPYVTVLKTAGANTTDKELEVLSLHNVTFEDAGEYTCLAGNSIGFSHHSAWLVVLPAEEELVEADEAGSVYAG
In short: as §1

FGF-R1C ECD = biological target: T3, FGF-R1C ECD (Homo sapiens, UniProt P11362); experiment: biochemical; design: DNA constructs for the extracellular domain (ECD) of human FGF-; HPC4 (C); made in house; host or cells: HEK 293-6E
T3 sequence (P11362 22-376 limits assumed): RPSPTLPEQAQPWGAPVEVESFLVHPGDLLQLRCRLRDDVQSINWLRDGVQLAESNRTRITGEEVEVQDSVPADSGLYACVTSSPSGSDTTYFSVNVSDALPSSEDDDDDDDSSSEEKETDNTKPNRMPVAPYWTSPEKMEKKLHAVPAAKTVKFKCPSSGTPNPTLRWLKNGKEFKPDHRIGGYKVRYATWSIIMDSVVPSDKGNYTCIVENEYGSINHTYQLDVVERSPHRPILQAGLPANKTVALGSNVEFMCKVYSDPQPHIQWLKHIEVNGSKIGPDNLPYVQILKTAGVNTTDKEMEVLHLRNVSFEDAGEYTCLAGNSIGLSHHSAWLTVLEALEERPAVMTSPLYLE
In short: as §1

[1] = crude T18 selection 1 (1:1:1) peptides, single concentration BLI (Table S4), read-out: KD (4)
[2] = crude NNK peptides, single concentration BLI (Table S3), read-out: KD (4)

Molecule	Kd (FGF-R4 ECD; [1])	Kd (FGF-R3C ECD)	Kd (FGF-R1C ECD)	Kd (FGF-R4 ECD; [2])	Kd (FGF-R4 ECD)
CC[C@H](C)[C@@H]1NC(=O)[C@H](CCCCN)NC(=O)[C@H](Cc2ccc(O)cc2)NC(=O)[C@H](Cc2c[nH]c3ccccc23)NC(=O)[C@H]([C@@H](C)CC)NC(=O)[C@H](C(C)C)NC(=O)[C@H](CCC(=O)O)NC(=O)[C@@H](NC(=O)[C@H](CCSC)NC(C)=O)CSSC[C@@H](C(=O)NCC(=O)N[C@@H](CO)C(=O)NCC(=O)N[C@@H](CO)C(=O)N[C@@H](CC(=O)O)C(=O)N[C@@H](Cc2ccc(O)cc2)C(=O)N[C@@H](CCCCN)C(=O)N[C@@H](CC(=O)O)C(=O)N[C@@H](CC(=O)O)C(=O)N[C@@H](CC(=O)O)C(=O)N[C@@H](CC(=O)O)C(=O)N[C@@H](CCCCN)C(N)=O)NC(=O)[C@H](CCCCN)NC(=O)[C@H](CCCNC(=N)N)NC(=O)[C@H](Cc2c[nH]c3ccccc23)NC(=O)[C@H](CCC(N)=O)NC1=O (Ac-MCEVIWYKIQWRKCGSGSDYKDDDDK-NH2; disulfide 2-14)	0.012 µM	> 10 µM	> 10 µM		
CC[C@H](C)[C@@H]1NC(=O)[C@H](CCCCN)NC(=O)[C@H](Cc2ccc(O)cc2)NC(=O)[C@H](CC(C)C)NC(=O)[C@H]([C@@H](C)CC)NC(=O)[C@H]([C@@H](C)CC)NC(=O)[C@H](CC(N)=O)NC(=O)[C@@H](NC(=O)[C@H](CCSC)NC(C)=O)CSSC[C@@H](C(=O)NCC(=O)N[C@@H](CO)C(=O)NCC(=O)N[C@@H](CO)C(=O)N[C@@H](CC(=O)O)C(=O)N[C@@H](Cc2ccc(O)cc2)C(=O)N[C@@H](CCCCN)C(=O)N[C@@H](CC(=O)O)C(=O)N[C@@H](CC(=O)O)C(=O)N[C@@H](CC(=O)O)C(=O)N[C@@H](CC(=O)O)C(=O)N[C@@H](CCCCN)C(N)=O)NC(=O)[C@H](CCCNC(=N)N)NC(=O)[C@H](CC(N)=O)NC(=O)[C@H](CCCCN)NC(=O)[C@H](CCSC)NC1=O (Ac-MCNIILYKIMKNRCGSGSDYKDDDDK-NH2; disulfide 2-14)		> 10 µM	> 10 µM	> 10 µM	
CSCC[C@H](N)C(=O)N[C@H]1CSSC[C@@H](C(=O)NCC(=O)N[C@@H](CO)C(=O)NCC(=O)N[C@@H](CO)C(=O)N[C@@H](CC(=O)O)C(=O)N[C@@H](Cc2ccc(O)cc2)C(=O)N[C@@H](CCCCN)C(=O)N[C@@H](CC(=O)O)C(=O)N[C@@H](CC(=O)O)C(=O)N[C@@H](CC(=O)O)C(=O)N[C@@H](CC(=O)O)C(=O)N[C@@H](CCCCN)C(N)=O)NC(=O)[C@H](Cc2ccc(O)cc2)NC(=O)[C@H](C(C)C)NC(=O)[C@H](Cc2ccccc2)NC(=O)[C@@H]2CCCN2C(=O)[C@H](CC(C)C)NC(=O)[C@H](Cc2c[nH]c3ccccc23)NC(=O)[C@H](CO)NC(=O)[C@H](CC(=O)O)NC(=O)[C@H](Cc2ccccc2)NC(=O)[C@H](C(C)C)NC1=O (H-MCVFDSWLPFVYCGSGSDYKDDDDK-NH2; disulfide 2-13)		0.618 µM	> 10 µM	> 10 µM	
CSCC[C@H](NC(C)=O)C(=O)N[C@H]1CSSC[C@@H](C(=O)NCC(=O)N[C@@H](CO)C(=O)NCC(=O)N[C@@H](CO)C(=O)N[C@@H](CCC(=O)O)C(=O)N[C@@H](CCC(=O)O)C(=O)NCC(=O)N[C@@H](CO)C(=O)NCC(=O)N[C@@H](CO)C(=O)N[C@@H](CC(=O)O)C(=O)N[C@@H](Cc2ccc(O)cc2)C(=O)N[C@@H](CCCCN)C(=O)N[C@@H](CC(=O)O)C(=O)N[C@@H](CC(=O)O)C(=O)N[C@@H](CC(=O)O)C(=O)N[C@@H](CC(=O)O)C(=O)N[C@@H](CCCCN)C(N)=O)NC(=O)[C@H](Cc2ccccc2)NC(=O)[C@H](CCCCN)NC(=O)CNC(=O)[C@H](CCCCN)NC(=O)[C@H](Cc2c[nH]c3ccccc23)NC(=O)[C@H](CC(C)C)NC(=O)[C@H](CC(C)C)NC(=O)[C@H](Cc2ccccc2)NC(=O)[C@H](C)NC(=O)[C@H](CCCCN)NC(=O)[C@H](C)NC1=O (Ac-MCAKAFLLWKGKFCGSGSEEGSGSDYKDDDDK-NH2; disulfide 2-14)	> 10 µM	> 10 µM	> 10 µM		
GSGSDYKDDDDK-NH2 [flag, reference compound]		> 10 µM	> 10 µM		> 10 µM
CSCC[C@H](NC(C)=O)C(=O)N[C@H]1CSSC[C@@H](C(=O)NCC(=O)N[C@@H](CO)C(=O)NCC(=O)N[C@@H](CO)C(=O)N[C@@H](CC(=O)O)C(=O)N[C@@H](Cc2ccc(O)cc2)C(=O)N[C@@H](CCCCN)C(=O)N[C@@H](CC(=O)O)C(=O)N[C@@H](CC(=O)O)C(=O)N[C@@H](CC(=O)O)C(=O)N[C@@H](CC(=O)O)C(=O)N[C@@H](CCCCN)C(N)=O)NC(=O)[C@H](CCC(N)=O)NC(=O)[C@H](Cc2c[nH]cn2)NC(=O)[C@H](Cc2c[nH]c3ccccc23)NC(=O)[C@H](CC(C)C)NC(=O)[C@H]([C@@H](C)O)NC(=O)[C@H](CCC(=O)O)NC(=O)[C@H](Cc2ccc(O)cc2)NC(=O)[C@@H]2CCCN2C(=O)[C@H](Cc2c[nH]cn2)NC(=O)[C@H](CCCNC(=N)N)NC(=O)[C@H](Cc2c[nH]cn2)NC(=O)[C@H]([C@@H](C)O)NC1=O (Ac-MCTHRHPYETLWHQCGSGSDYKDDDDK-NH2; disulfide 2-15)	> 10 µM	> 10 µM	> 10 µM		
CC[C@H](C)[C@@H]1NC(=O)[C@@H]2CCCN2C(=O)[C@H](CC(C)C)NC(=O)[C@@H]2CCCN2C(=O)[C@H](Cc2c[nH]c3ccccc23)NC(=O)[C@@H]2CCCN2C(=O)[C@H](Cc2ccccc2)NC(=O)[C@H](CCCCN)NC(=O)[C@H]([C@@H](C)O)NC(=O)[C@@H](NC(=O)[C@@H](N)CCSC)CSSC[C@@H](C(=O)NCC(=O)N[C@@H](CO)C(=O)NCC(=O)N[C@@H](CO)C(=O)N[C@@H](CC(=O)O)C(=O)N[C@@H](Cc2ccc(O)cc2)C(=O)N[C@@H](CCCCN)C(=O)N[C@@H](CC(=O)O)C(=O)N[C@@H](CC(=O)O)C(=O)N[C@@H](CC(=O)O)C(=O)N[C@@H](CC(=O)O)C(=O)N[C@@H](CCCCN)C(N)=O)NC(=O)[C@H](C)NC(=O)[C@H](Cc2c[nH]c3ccccc23)NC(=O)[C@H](Cc2ccccc2)NC1=O (H-MCTKFPWPLPIFWACGSGSDYKDDDDK-NH2; disulfide 2-15)		> 10 µM	0.545 µM	0.346 µM	
CSCC[C@H](NC(C)=O)C(=O)N[C@@H](CCSC)C(=O)N[C@@H](CO)C(=O)N[C@@H](Cc1c[nH]cn1)C(=O)N[C@H]1CSSC[C@@H](C(=O)NCC(=O)N[C@@H](CO)C(=O)NCC(=O)N[C@@H](CO)C(=O)N[C@@H](CC(=O)O)C(=O)N[C@@H](Cc2ccc(O)cc2)C(=O)N[C@@H](CCCCN)C(=O)N[C@@H](CC(=O)O)C(=O)N[C@@H](CC(=O)O)C(=O)N[C@@H](CC(=O)O)C(=O)N[C@@H](CC(=O)O)C(=O)N[C@@H](CCCCN)C(N)=O)NC(=O)[C@H](CC(C)C)NC(=O)[C@H](CC(C)C)NC(=O)[C@H](C(C)C)NC(=O)[C@H](CCCCN)NC(=O)[C@H](Cc2ccccc2)NC(=O)[C@H](CC(C)C)NC(=O)[C@H](Cc2c[nH]c3ccccc23)NC1=O (Ac-MMSHCWLFKVLLCGSGSDYKDDDDK-NH2; disulfide 5-13)		> 10 µM	> 10 µM	0.239 µM	
CC[C@H](C)[C@@H]1NC(=O)[C@H](CCCCN)NC(=O)[C@H](Cc2ccc(O)cc2)NC(=O)[C@H](Cc2ccc(O)cc2)NC(=O)[C@H](Cc2c[nH]cn2)NC(=O)[C@H](Cc2c[nH]c3ccccc23)NC(=O)[C@H](CC(C)C)NC(=O)[C@@H](NC(=O)[C@H](CCSC)NC(C)=O)CSSC[C@@H](C(=O)NCC(=O)N[C@@H](CO)C(=O)NCC(=O)N[C@@H](CO)C(=O)N[C@@H](CC(=O)O)C(=O)N[C@@H](Cc2ccc(O)cc2)C(=O)N[C@@H](CCCCN)C(=O)N[C@@H](CC(=O)O)C(=O)N[C@@H](CC(=O)O)C(=O)N[C@@H](CC(=O)O)C(=O)N[C@@H](CC(=O)O)C(=O)N[C@@H](CCCCN)C(N)=O)NC(=O)[C@H](CCCCN)NC(=O)[C@H](CCC(N)=O)NC(=O)[C@H](CCCNC(=N)N)NC(=O)[C@H](CCCNC(=N)N)NC(=O)[C@H](Cc2ccccc2)NC1=O (Ac-MCLWHYYKIFRRQKCGSGSDYKDDDDK-NH2; disulfide 2-15)	0.008 µM	> 10 µM	0.096 µM		
